According to ChEMBL document CHEMBL3392960, “Discovery of thienoimidazole-based HCV NS5A inhibitors. Part 1: C2-symmetric inhibitors with diyne and biphenyl linkers” (Bioorg Med Chem Lett, 2015):

Tests used:
[1] = system: Hepatitis C virus; test: Antiviral activity against Hepatitis C virus genotype 1a infected in W11.8 cells assessed as decrease in NS5A expression in replicon cell after 4 days by luminescence based ELISA; type: functional, Hepacivirus hominis; details: subtype 1a, W11.8, 96 h
[2] = Volume of distribution at steady state in iv dosed Sprague-Dawley rat; type: ADME, organism-based; details: in vivo, read-out: Vdss
[3] = system: Hepatitis C virus; test: Antiviral activity against Hepatitis C virus genotype 1b infected in human Huh-5.2 cells assessed as decrease in HCV replicon RNA replication after 4 days by luciferase assay; type: functional, cell-based, Hepacivirus hominis; details: Huh-5-2, 96 h
[4] = Cytotoxicity against human HuhET cells by [3H]thymidine incorporation assay; type: cell-based
[5] = Clearance in iv dosed Sprague-Dawley rat; type: ADME, organism-based; details: in vivo
[6] = Half life in iv dosed Sprague-Dawley rat; type: ADME, organism-based; details: in vivo

Row | EC50 [1] [nM] | Vd [2] [L/kg] | EC50 [3] [nM] | clearance [5] [mL/min/kg] | half-life [6] [h] | Compound | CC50 [4] [nM]
1 | 6 | 2.2 | 0.006 | 8 | 4.5 | COC(=O)N[C@H](C(=O)N1C[C@@H](C)C[C@H]1c1nc2sc(-c3ccc(-c4ccc(-c5cc6[nH]c([C@@H]7C[C@H](C)CN7C(=O)[C@@H](NC(=O)OC)C(C)C)nc6s5)cc4)cc3)cc2[nH]1)C(C)C | > 20000
2 | 184 | – | 0.17 | – | – | COC(=O)N[C@H](C(=O)N1C[C@@H](C)C[C@H]1c1nc2sc(C#CC#Cc3cc4[nH]c([C@@H]5C[C@H](C)CN5C(=O)[C@@H](NC(=O)OC)C(C)C)nc4s3)cc2[nH]1)C(C)C | > 20000
3 | 281 | 3.3 | 0.386 | 8.2 | 5.2 | COC(=O)N[C@H](C(=O)N1CCC[C@H]1c1nc2sc(C#CC#Cc3cc4[nH]c([C@@H]5CCCN5C(=O)[C@@H](NC(=O)OC)C(C)C)nc4s3)cc2[nH]1)C(C)C | 6100
